≈ marks a conversion by molar mass, not a printed value. Values belong to the compound of their own block, whether it stands above or below them.
Columns and labels:
S. aureus [1] = assay: Disk diffusion antibacterial test; type: cell-based, Staphylococcus aureus; design: key to Inhibition zone (mm) S. aureus: —: inactive at concentration 50 mM; details: for Sensitivity of S. aureus to compound: there called agar dilution method; for Inhibition zone (mm) S. aureus: disc diffusion test, concentration 50 mM
Experimental: (§1) Antibacterial effects of spiro[indeno[2,1-c]pyridazine-9,4′-pyran]-3′,4-dicarbonitrile derivatives 5a–j were evaluated in vitro by using disk diffusion method against Gram-positive (S. aureus) and Gram negative (E. coli). The diameter of inhibition zone correlates to the sensitivity of a bacterium to an antibacterial agent. […] E. coli was resistant against all compounds tested (Table 2). Tetracycline and DMSO were used as positive control and negative control respectively. Next, the active compounds were analysed using MIC assay to determine the lowest concentration for inhibition. […] It seems due to the difference in structure of bacterial cell wall (i.e., the presence of outer membrane with lipid, lipopolysaccharide, and lipoprotein content in Gram negative bacteria), E. coli was resistant against the related synthetic compounds.
(§2) Antibacterial activity of the prepared synthetic compounds against the Gram-negative bacteria (E. coli; ATCC: 15922) and the Gram-positive bacteria (S. aureus; PTCC: 1112, International no. ATCC6538P) were examined by disk diffusion assay. Bacterial cultures were obtained from Persian Type Culture Collection, Tehran, Iran (PTCC). Isolated pure colonies from fresh grown bacteria were transferred from the plates into sterile normal saline solution and it was vortexed to form bacterial homogenous suspensions. The turbidity was then adjusted to 0.5 McFarland standard units, and the suspensions were poured over Mueller–Hinton agar (MHA) plates. Sterile filter paper disks were placed over these plates. The sterile disks were impregnated with the tested compounds. Positive control (tetracycline) and negative control ([…]) were used. To determine MIC, the concentrations of tested substance were prepared within the range from 30–5 mM. Incubate in incubator at 37 °C in 24 h for bacteria (Table 2).

E. coli = assay: Disk diffusion antibacterial test; type: cell-based, Escherichia coli; design: key: —: inactive at concentration 50 mM; details: disc diffusion test, concentration 50 mM
Experimental: as §1, §2

S. aureus [2] = assay: MIC determination; type: cell-based; details: Staphylococcus aureus; read-out: MICs (mM) S. aureus
Experimental: as §1, §2

A375 cells = assay: MTT cytotoxicity assay; type: cell-based; details: Homo sapiens, A-375, 48 h
Experimental: (§3) At first, in order to compare anti-cancer properties, the synthesized compounds 5a–j were evaluated against A549 cells, MCF-7 cells, A375 cells, PC3 cells, LNCaP cells and HDF cells lines using the MTT colorimetric assay. The activity is expressed as 50% growth inhibitory concentration (IC50) values at 48 h. We used DMSO (1%) as negative control and Etoposide as positive control.
(§4) Human non-small-cell lung cancer A549 cells, human breast cancer MCF-7 cells, human malignant melanoma cells (A375), human prostate cancer cells (PC3 cells, LNCaP cells) and normal cells HDF (human dermal fibroblast) were received from Pasture Institute, Tehran, Iran. MCF-7 cells were grown in RPMI 1640 medium, A549 cells, A375 cells, PC3 cells, LNCaP cells and HDF cells were grown in DMEM medium. All media contain 10% fetal bovine serum (FBS), penicillin G, streptomycin 100 μg mL^−1 and 1% L-glutamine. The cells were cultured and incubated under humidified 5% CO2 atmosphere at 37 °C.
(§5) The effect of compounds treatment on the viability of cancer cell lines was measured by (3-(4,5-dimethylthiazol-2-yl)-2,5-diphenyl tetrazolium bromide or MTT) assay (MTT assay kit, Bio IDEA, CatNo: BI1017, Iran) based on the ability of live cells to cleave the tetrazolium ring to a molecule that absorb at […] as per the manufacturer's instructions.[33] Etoposide (was kindly provided by Dr A. Foroumadi, Tehran medical Science University, Iran) and dimethyl sulfoxide (or DMSO) was used as positive and negative controls, respectively.[34] Briefly, cells were plated in 96-well culture plates (5 × 10^3 cells per well). After 24 h incubation, the cells were treated with different concentrations of the compounds. After 48 h at 37 °C, the medium was removed and 100 μL of MTT reagent (1 mg mL^−1) was added to each well, and cells were further incubated at 37 °C for 4 h. The MTT solution was removed, 50 μL of DMSO was added to each well to dissolve formazan crystals, and the plates were gently shaken for 10 minutes, followed by reading with an ELISA plate reader (BiotekELx 800, USA). The 50% inhibition concentration (IC50) was defined as the concentration that inhibited cell proliferation by 50% when compared to DMSO treated cells (as negative control).

A549 cells = assay: MTT cytotoxicity assay; type: cell-based; details: Homo sapiens, 48 h
Experimental: as §3, §4, §5

HDF cells = assay: MTT cytotoxicity assay; type: cell-based; details: 48 h, normal cells (human dermal fibroblast)
Experimental: as §3, §4, §5

LNCaP cells = assay: MTT cytotoxicity assay; type: cell-based; details: Homo sapiens, 48 h
Experimental: as §3, §4, §5

MCF-7 cells = assay: MTT cytotoxicity assay; type: cell-based; details: Homo sapiens, MCF7, 48 h
Experimental: as §3, §4, §5

PC3 cells = assay: MTT cytotoxicity assay; type: cell-based; details: Homo sapiens, PC-3, 48 h
Experimental: as §3, §4, §5

Structure (SMILES): N#CC1=C(N)Oc2[nH]c(=O)[nH]c(=O)c2C12c1ccccc1-c1c2n[nH]c(=O)c1C#N (centres unmarked) [5b, 7′-Amino-2′,3,4′-trioxo-1′,2,2′,3,3′,4′-hexahydrospiro[indeno[2,1-c]pyridazine-9,5′-pyrano[2,3-d]pyrimidine]-4,6′-dicarbonitrile]
Sensitivity of S. aureus to compound (S. aureus [1]): sensitive
Inhibition zone (mm) E. coli (E. coli): —
MIC (S. aureus [2]): 5 mM (≈ 2000 µg/mL)
IC50 (A375 cells): > 100 µM
IC50 (A549 cells): > 100 µM
IC50 (HDF cells): > 100 µM
IC50 (LNCaP cells): > 100 µM
IC50 (MCF-7 cells): > 100 µM
IC50 (PC3 cells): > 100 µM
melting point: 322 to 324 °C

Structure (SMILES): N#CC1=C(N)Oc2[nH]c(=S)[nH]c(=O)c2C12c1ccccc1-c1c2n[nH]c(=O)c1C#N (centres unmarked) [5c, 7′-Amino-3,4′-dioxo-2′-thioxo-1′,2,2′,3,3′,4′-hexahydrospiro[indeno[2,1-c]pyridazine-9,5′-pyrano[2,3-d]pyrimidine]-4,6′-dicarbonitrile]
Sensitivity of S. aureus to compound (S. aureus [1]): sensitive
Inhibition zone (mm) E. coli (E. coli): —
MIC (S. aureus [2]): 50 mM (≈ 20800 µg/mL)
IC50 (A375 cells): > 100 µM
IC50 (A549 cells): > 100 µM
IC50 (HDF cells): > 100 µM
IC50 (LNCaP cells): > 100 µM
IC50 (MCF-7 cells): > 100 µM
IC50 (PC3 cells): > 100 µM
melting point: 305 to 307 °C

Structure (SMILES): CC1(C)CC(=O)C2=C(C1)OC(N)=C(C#N)C21c2ccccc2-c2c1n[nH]c(=O)c2C#N (centres unmarked) [5d, 2-Amino-7,7-dimethyl-3′,5-dioxo-2′,3′,5,6,7,8-hexahydrospiro[chromene-4,9′-indeno[2,1-c]pyridazine]-3,4′-dicarbonitrile]
Inhibition zone (mm) S. aureus (S. aureus [1]): —
Inhibition zone (mm) E. coli (E. coli): —
IC50 (A375 cells): > 100 µM
IC50 (A549 cells): > 100 µM
IC50 (HDF cells): > 100 µM
IC50 (LNCaP cells): > 100 µM
IC50 (MCF-7 cells): > 100 µM
IC50 (PC3 cells): > 100 µM
melting point: 315 to 318 °C

Structure (SMILES): COC(=O)c1nn(-c2ccccc2)c2c1C1(C(C#N)=C(N)O2)c2ccccc2-c2c1n[nH]c(=O)c2C#N (centres unmarked) [5h, Methyl 6′-amino-4,5′-dicyano-3-oxo-1′-phenyl-2,3-dihydro-1′H-spiro[indeno[2,1-c]pyridazine-9,4′-pyrano[2,3-c]pyrazole]-3′-carboxylate]
Inhibition zone (mm) S. aureus (S. aureus [1]): —
Inhibition zone (mm) E. coli (E. coli): —
IC50 (A375 cells): > 100 µM
IC50 (A549 cells): > 100 µM
IC50 (HDF cells): > 100 µM
IC50 (LNCaP cells): > 100 µM
IC50 (MCF-7 cells): > 100 µM
IC50 (PC3 cells): > 100 µM

Structure (SMILES): COc1cc([C@@H]2c3cc4c(cc3[C@@H](O[C@@H]3O[C@@H]5CO[C@@H](C)O[C@H]5[C@H](O)[C@H]3O)[C@H]3COC(=O)[C@H]23)OCO4)cc(OC)c1O [Etoposide, reference compound]
IC50 (A375 cells): 25.31 ± 0.018 µM
IC50 (A549 cells): 60 ± 0.015 µM
IC50 (HDF cells): > 100 µM
IC50 (LNCaP cells): 90 ± 0.031 µM
IC50 (MCF-7 cells): 30 ± 0.011 µM
IC50 (PC3 cells): 40 ± 0.062 µM

More lines, main results first:

MIC (S. aureus [2]): 10 mM (≈ 4450 µg/mL)
Structure (SMILES): Cc1nn(-c2ccccc2)c2c1C1(C(C#N)=C(N)O2)c2ccccc2-c2c1n[nH]c(=O)c2C#N (centres unmarked) [5e, 6′-Amino-3′-methyl-3-oxo-1′-phenyl-2,3-dihydro-1′H-spiro[indeno[2,1-c]pyridazine-9,4′-pyrano[2,3-c]pyrazole]-4,5′-dicarbonitrile]
Sensitivity of S. aureus to compound (S. aureus [1]): sensitive
Inhibition zone (mm) E. coli (E. coli): —
IC50 (A375 cells): > 100 µM
IC50 (A549 cells): > 100 µM
IC50 (HDF cells): > 100 µM
IC50 (LNCaP cells): > 100 µM
IC50 (MCF-7 cells): > 100 µM
IC50 (PC3 cells): > 100 µM

MIC (S. aureus [2]): 5 mM (≈ 1850 µg/mL)
Structure (SMILES): Cc1n[nH]c2c1C1(C(C#N)=C(N)O2)c2ccccc2-c2c1n[nH]c(=O)c2C#N (centres unmarked) [5f, 6′-Amino-3′-methyl-3-oxo-2,3-dihydro-1′H-spiro[indeno[2,1-c]pyridazine-9,4′-pyrano[2,3-c]pyrazole]-4,5′-dicarbonitrile]
Sensitivity of S. aureus to compound (S. aureus [1]): sensitive
Inhibition zone (mm) E. coli (E. coli): —
IC50 (A375 cells): > 100 µM
IC50 (A549 cells): > 100 µM
IC50 (HDF cells): > 100 µM
IC50 (LNCaP cells): > 100 µM
IC50 (MCF-7 cells): > 100 µM
IC50 (PC3 cells): > 100 µM

MIC (S. aureus [2]): 5 mM (≈ 2400 µg/mL)
Structure (SMILES): Cc1nn(-c2cccc(Cl)c2)c2c1C1(C(C#N)=C(N)O2)c2ccccc2-c2c1n[nH]c(=O)c2C#N (centres unmarked) [5g, 6′-Amino-1′-(3-chlorophenyl)-3′-methyl-3-oxo-2,3-dihydro-1′H-spiro[indeno[2,1-c]pyridazine-9,4′-pyrano[2,3-c]pyrazole]-4,5′-dicarbonitrile]
Sensitivity of S. aureus to compound (S. aureus [1]): sensitive
Inhibition zone (mm) E. coli (E. coli): —
IC50 (A375 cells): > 100 µM
IC50 (A549 cells): > 100 µM
IC50 (HDF cells): > 100 µM
IC50 (LNCaP cells): > 100 µM
IC50 (MCF-7 cells): > 100 µM
IC50 (PC3 cells): > 100 µM

MIC (S. aureus [2]): 5 mM (≈ 2170 µg/mL)
melting point: 308 to 310 °C
Structure (SMILES): N#CC1=C(N)Oc2c(c(=O)oc3ccccc23)C12c1ccccc1-c1c2n[nH]c(=O)c1C#N (centres unmarked) [5i, 2′-Amino-3,5′-dioxo-2,3-dihydro-5′H-spiro[indeno[2,1-c]pyridazine-9,4′-pyrano[3,2-c]chromene]-3′,4-dicarbonitrile]
Sensitivity of S. aureus to compound (S. aureus [1]): sensitive
Inhibition zone (mm) E. coli (E. coli): —
IC50 (A375 cells): > 100 µM
IC50 (A549 cells): > 100 µM
IC50 (HDF cells): > 100 µM
IC50 (LNCaP cells): > 100 µM
IC50 (MCF-7 cells): > 100 µM
IC50 (PC3 cells): > 100 µM

melting point: 298 to 300 °C
Structure (SMILES): N#CC1=C(N)OC2=C(C(=O)c3ccccc32)C12c1ccccc1-c1c2n[nH]c(=O)c1C#N (centres unmarked) [5j, 2-Amino-3′,5-dioxo-2′,3′-dihydro-5H-spiro[indeno[1,2-b]pyran-4,9′-indeno[2,1-c]pyridazine]-3,4′-dicarbonitrile]
Inhibition zone (mm) S. aureus (S. aureus [1]): —
Inhibition zone (mm) E. coli (E. coli): —
IC50 (A375 cells): > 100 µM
IC50 (A549 cells): > 100 µM
IC50 (HDF cells): > 100 µM
IC50 (LNCaP cells): > 100 µM
IC50 (MCF-7 cells): > 100 µM
IC50 (PC3 cells): > 100 µM

— paper PMC9070039, “Synthesis and evaluation of antimicrobial activity, cytotoxic and pro-apoptotic effects of novel spiro-4H-pyran derivatives” (RSC Advances, 2019)
